These results are taken from article PMC6174881 (Journal of medicinal chemistry, 2018).

Assay [1] deals with mMC5R (Mus musculus, UniProt P41149). Description: AlphaScreen cAMP assay, agonist/inverse agonist activity at mMC5R. The settings on record: for mMC5R activity in words: up to 100 μM. A general note: Alpha assays give light when donor and acceptor beads are brought close together.
The target of assay [2] is mMC4R (Mus musculus, UniProt P56450). The settings on record: for fold increase in potency at the mMC4R compared to 1: calculated using Ki values from Schild analysis; for selectivity for the mMC4R over the mMC3R: calculated using antagonist Ki values.
The target of assay [3] is mMC3R (Mus musculus, UniProt P33033). As to conditions: for fold increase in potency at the mMC3R compared to 1: calculated using Ki values from Schild analysis.
In assay [4] the target is mMC1R (Mus musculus, UniProt Q01727). The settings on record: up to 100 μM.
Setting [5] is: Schild analysis with agonist NDP-MSH, pA2 = −log[Ki].

Molecules are shown by their SMILES. “And” between values parts separate entries of the source, which are not always exact repeats. Equal entries are not always repeated. Square brackets hold non-standard residues; d marks the D form. Peptide text beside a SMILES is read from it. hPhe = N[C@@H](CCc1ccccc1)C(=O)O; Nle = CCCC[C@H](N)C(=O)O; Dap = NC[C@H](N)C(=O)O

Chain of mMC3R (P33033 whole entry): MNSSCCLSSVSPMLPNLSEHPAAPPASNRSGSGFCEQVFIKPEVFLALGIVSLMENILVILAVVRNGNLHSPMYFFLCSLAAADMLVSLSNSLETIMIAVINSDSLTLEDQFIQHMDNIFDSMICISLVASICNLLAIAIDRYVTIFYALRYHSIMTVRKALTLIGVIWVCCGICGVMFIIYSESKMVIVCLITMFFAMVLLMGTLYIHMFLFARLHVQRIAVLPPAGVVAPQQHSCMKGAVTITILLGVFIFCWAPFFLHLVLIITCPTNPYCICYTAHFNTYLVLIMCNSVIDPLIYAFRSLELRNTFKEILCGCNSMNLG
Chain of mMC4R (P56450 whole entry): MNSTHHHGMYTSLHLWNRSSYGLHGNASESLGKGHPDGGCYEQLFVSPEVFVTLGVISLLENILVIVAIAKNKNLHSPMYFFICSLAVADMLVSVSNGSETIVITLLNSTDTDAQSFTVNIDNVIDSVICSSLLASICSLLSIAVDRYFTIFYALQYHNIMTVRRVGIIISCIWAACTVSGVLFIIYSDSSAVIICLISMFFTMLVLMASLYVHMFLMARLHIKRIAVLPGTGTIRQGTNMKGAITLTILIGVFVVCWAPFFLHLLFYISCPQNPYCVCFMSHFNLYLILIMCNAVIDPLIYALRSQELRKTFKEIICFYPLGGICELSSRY
Chain of mMC5R (P41149 whole entry): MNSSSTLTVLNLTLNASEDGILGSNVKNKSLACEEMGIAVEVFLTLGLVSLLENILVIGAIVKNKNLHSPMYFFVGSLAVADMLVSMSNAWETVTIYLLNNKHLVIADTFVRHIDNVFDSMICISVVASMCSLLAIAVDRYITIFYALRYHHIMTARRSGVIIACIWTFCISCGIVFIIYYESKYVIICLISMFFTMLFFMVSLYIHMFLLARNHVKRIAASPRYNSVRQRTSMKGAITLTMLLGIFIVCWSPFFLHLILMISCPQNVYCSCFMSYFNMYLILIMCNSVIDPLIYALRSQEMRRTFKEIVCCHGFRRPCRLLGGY
Chain of mMC1R (Q01727 whole entry): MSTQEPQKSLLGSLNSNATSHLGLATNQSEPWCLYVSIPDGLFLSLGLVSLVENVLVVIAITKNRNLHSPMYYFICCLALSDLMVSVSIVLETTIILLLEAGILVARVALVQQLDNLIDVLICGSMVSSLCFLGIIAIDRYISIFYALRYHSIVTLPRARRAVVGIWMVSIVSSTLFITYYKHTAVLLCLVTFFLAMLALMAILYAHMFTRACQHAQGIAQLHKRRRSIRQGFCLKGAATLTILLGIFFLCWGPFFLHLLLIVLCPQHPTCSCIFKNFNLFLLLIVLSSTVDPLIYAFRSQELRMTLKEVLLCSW

With `CCCC[C@@H]1NC(=O)[C@H](CO)NC(=O)[C@H](CC(N)=O)NC(=O)[C@H](Cc2ccccc2)NC(=O)[C@H](Cc2ccccc2)NC(=O)[C@H](CCCNC(=N)N)NC(=O)[C@@H]2CCCN2C(=O)[C@H]2CCCN2C1=O` [Compound 4, c[Pro-Arg-Phe-Phe-Asn-Ser-Nle-DPro]] (cyclo(RFFNS[Nle][dP]P)), the “mMC5R inverse agonist efficacy −X% @ 100 μM” value in assay [1] (at 100 μM relative to basal, no sigmoidal dose-response) is −35% @ 100μM. For the same molecule, the “mMC5R activity in words” value in assay [1] is listed as “inverse agonist activity was observed”. For the same molecule, the “fold increase in potency at the mMC4R compared to 1” value in assay [2] is not above 10 fold.
As to `CCCC[C@@H]1NC(=O)[C@H](CO)NC(=O)[C@H](CN)NC(=O)[C@H](Cc2ccccc2)NC(=O)[C@H](Cc2ccccc2)NC(=O)[C@H](CCCNC(=N)N)NC(=O)[C@@H]2CCCN2C(=O)[C@H]2CCCN2C1=O` [Compound 8, c[Pro-Arg-Phe-Phe-Dap-Ser-Nle-DPro]] (cyclo(RFF[Dap]S[Nle][dP]P)), the “fold increase in potency at the mMC4R compared to 1” value in assay [2] is not below 10 fold.
Take `CCCC[C@@H]1NC(=O)[C@H](C)NC(=O)[C@H](CCCNC(=N)N)NC(=O)[C@H](Cc2ccccc2)NC(=O)[C@H](Cc2ccccc2)NC(=O)[C@H](CCCNC(=N)N)NC(=O)[C@@H]2CCCN2C(=O)[C@H]2CCCN2C1=O` [Compound 10, c[Pro-Arg-Phe-Phe-Arg-Ala-Nle-DPro]] (cyclo(RFFRA[Nle][dP]P)): the “fold increase in potency at the mMC3R compared to 1” value in assay [3] was “greater than 10 fold”. For the same molecule, the “fold increase in potency at the mMC4R compared to 1” value in assay [2] is given as not below 10 fold.
In the case of `CCCC[C@@H]1NC(=O)[C@H](CO)NC(=O)[C@H](CCCNC(=N)N)NC(=O)[C@H](Cc2ccccc2)NC(=O)[C@H](Cc2ccccc2)NC(=O)[C@H](CCCNC(=N)N)NC(=O)[C@@H]2CCCN2C(=O)[C@H]2CCCN2C1=O` [Compound 12, c[Pro-Arg-Phe-Phe-Arg-Ser-Nle-DPro]] (cyclo(RFFRS[Nle][dP]P)), the “fold increase in potency at the mMC4R compared to 1” value in assay [2] was not below 10 fold.
As for `CCCC[C@@H]1NC(=O)[C@H](C)NC(=O)[C@H](CC(N)=O)NC(=O)[C@H](CCc2ccccc2)NC(=O)[C@H](Cc2ccccc2)NC(=O)[C@H](CCCNC(=N)N)NC(=O)[C@@H]2CCCN2C(=O)[C@H]2CCCN2C1=O` [Compound 14, c[Pro-Arg-Phe-hPhe-Asn-Ala-Nle-DPro]], the “mMC1R agonist activity in words” value in assay [4] is reported as “did not possess agonist activity”.
On to `CCCC[C@@H]1NC(=O)[C@H](CO)NC(=O)[C@H](CC(N)=O)NC(=O)[C@H](CCc2ccccc2)NC(=O)[C@H](Cc2ccccc2)NC(=O)[C@H](CCCNC(=N)N)NC(=O)[C@@H]2CCCN2C(=O)[C@H]2CCCN2C1=O` [Compound 16, c[Pro-Arg-Phe-hPhe-Asn-Ser-Nle-DPro]] (cyclo(RF[hPhe]NS[Nle][dP]P)), for which the “mMC5R activity in words” value in assay [1] is recorded as “did not result in mMC5R stimulation”. Also, the “Antagonist mMC3R pA2” value in assay [3] (setting [5]) was 6.33. In assay [2], the “fold more potent than AGRP at the mMC4R” value is 3–6 fold; the “selectivity for the mMC4R over the mMC3R” value is 600–800 fold and 800 fold. In addition, the “Antagonist mMC4R pA2” value in assay [2] (setting [5]) came to 9.23.
Turning to `CCCC[C@@H]1NC(=O)[C@H](CO)NC(=O)[C@H](CN)NC(=O)[C@H](CCc2ccccc2)NC(=O)[C@H](Cc2ccccc2)NC(=O)[C@H](CCCNC(=N)N)NC(=O)[C@@H]2CCCN2C(=O)[C@H]2CCCN2C1=O` [Compound 20, c[Pro-Arg-Phe-hPhe-Dap-Ser-Nle-DPro]] (cyclo(RF[hPhe][Dap]S[Nle][dP]P)), the “mMC5R activity in words” value in assay [1] is “did not result in mMC5R stimulation”. Also, in assay [2], the “fold more potent than AGRP at the mMC4R” value is on record as 3–6 fold; the “fold increase in potency at the mMC4R compared to 1” value is 25 fold; the “selectivity for the mMC4R over the mMC3R” value is 600–800 fold and 600 fold.
On to `N=C(N)NCCC[C@@H]1NC(=O)[C@H](CCc2ccccc2)NC(=O)[C@H](Cc2ccccc2)NC(=O)[C@H](CCCNC(=N)N)NC(=O)[C@@H]2CCCN2C(=O)[C@H]2CCCN2C(=O)[C@H](Cc2ccccc2)NC(=O)[C@H](CO)NC1=O` [Compound 23, c[Pro-Arg-Phe-hPhe-Arg-Ser-Phe-DPro]] (cyclo(RF[hPhe]RSF[dP]P)), for which, in assay [3], the “fold increase in potency at the mMC3R compared to 1” value was “greater than 10 fold”.
